Experimental data: patent publication US10188690B2, “Use of Kaempferia parviflora wall. ex. baker extracts or flavone compound for preventing or treating muscle diseases, or improving muscle function” (AAT COSTECH CO., LTD., priority 2012, dated 2019)

Experiments:
Wistar rats = test: Muscle mass in the TNF-α-induced myatrophy animal model; format: in vivo; settings: once daily for eight weeks, extract 500 mg/kg, flavones 300 mg/kg; for Calf muscle weight: TNF-α 100 ng/g for two weeks, TNF-α control 437 mg; for muscle weight compared to the control levels: TNF-α-induced myatrophy, p<0.01
Procedure: Five-week-old Wistar rats were acclimated for one week and myatrophy was induced by supplying TNF-α at the dose of 100 ng/g for two weeks. Afterwards, rats were randomly divided according to body weight into a total of 4 groups, each consisting of 8 rats. Each of the Kaempferia parviflora extract and flavone compounds was suspended in 0.25% carboxymethylcellulose and administered once daily for eight weeks at the dose of 500 mg/kg body weight for the Kaempferia parviflora extract, 300 mg/kg body weight for each of 5,7-dimethoxyflavone, 5,7,4′-trimethoxyflavone and 3,5,7,3′,4′-pentamethoxyflavone. The control group was administered with the same amount of 0.25% carboxymethylcellulose only as well as TNF-α.
After eight weeks of treatments, calf muscles were dissected out and weighed using microbalance (Mettler PE160, USA).

MuRF1 = test: RT-PCR of MuRF1 mRNA in differentiated L6 cells treated with TNF-α; format: cell-based; settings: TNF-α 24 hours, then 5,7-dimethoxyflavone 1 or 5 μM, normalized by β-actin, FIG. 1
Procedure: (§1) Muscle cell-line L6 myoblast (American Type Culture Collection, Manassas, Va., USA) was cultured in DMEM (10% FBS, 100 U/mL penicillin, 100 µg/mL streptomycin). When the cell density reached approximately 80˜85%, differentiation was induced for six days by replacing the culture medium with DMEM growth medium supplemented with 2% FBS for further experiments. In order to evoke muscle reduction in the differentiated L6 cells, cells were treated with TNF-α for 24 hours followed by the treatment with 5,7-dimethoxyflavone prepared in Example 2-1 at different concentrations (1 or 5 μM). RT-PCR experiments were performed to examine the expression levels of atrogin-1 and MuRF1, major ligases involved in protein catabolism in the muscles. Total RNA was obtained from the differentiated cells using Trizol (Invitrogen, Carlsbad, Calif., USA) and subjected to reverse transcription as follows. Total RNA isolated as above was reverse-transcribed using reverse transcriptases. The following primers were used for RT-PCR experiments.
(§2) Relative levels of mRNA for each gene was normalized by the value of β-actin.

myoD = test: RT-PCR of myoD mRNA in differentiated L6 cells; format: cell-based; settings: 5,7-dimethoxyflavone 1 or 5 μM (FIG. 2), extract 1 or 10 μg/ml (FIG. 4), normalized by β-actin
p-Akt = test: Western blot of p-Akt protein in L6 cells; format: cell-based; settings: 5,7-dimethoxyflavone 1 or 5 μM (FIG. 3), extract 1 or 10 μg/ml (FIG. 5)
Procedure: as §1
(§3) L6 cells were treated in the same manner as Experimental example 1, and were lysed with RIPA buffered solution containing a proteinase inhibitor cocktail. […] Protein bands were visualized using ECL western blotting detected reagents (Amersham, Tokyo, Japan). […]

atrogin-1 = test: RT-PCR of atrogin-1 mRNA in differentiated L6 cells treated with TNF-α; format: cell-based; settings: TNF-α 24 hours, then 5,7-dimethoxyflavone 1 or 5 μM, normalized by β-actin, FIG. 1
Procedure: as §1, §2

myogenin = test: RT-PCR of myogenin mRNA in differentiated L6 cells; format: cell-based; settings: 5,7-dimethoxyflavone 1 or 5 μM (FIG. 2), extract 1 or 10 μg/ml (FIG. 4), normalized by β-actin
p-mTOR = test: Western blot of p-mTOR protein in L6 cells; format: cell-based; settings: 5,7-dimethoxyflavone 1 or 5 μM (FIG. 3), extract 1 or 10 μg/ml (FIG. 5)
Procedure: as §1, §3

PI3K = test: Western blot of PI3K protein in L6 cells; format: cell-based; settings: 5,7-dimethoxyflavone 1 or 5 μM (FIG. 3), extract 1 or 10 μg/ml (FIG. 5)
Procedure: as §1, §3

SMILES	Calf muscle weight (Wistar rats) [mg]	muscle weight compared to the control levels (Wistar rats) [%]	mRNA level of MuRF1 (MuRF1)	mRNA level of myoD (myoD)	protein level of p-AKT (p-Akt)	mRNA level of atrogin-1 (atrogin-1)	mRNA level of myogenin (myogenin)	protein level of p-mTOR (p-mTOR)	protein level of PI3K (PI3K)
COc1cc(OC)c2c(=O)c(OC)c(-c3ccc(OC)c(OC)c3)oc2c1 [3,5,7,3′,4′-pentamethoxyflavone]	528	120	–	–	–	–	–	–	–
COc1ccc(-c2cc(=O)c3c(OC)cc(OC)cc3o2)cc1 [5,7,4′-trimethoxyflavone]	519	118	–	–	–	–	–	–	–
COc1cc(OC)c2c(=O)cc(-c3ccccc3)oc2c1 [5,7-dimethoxyflavone]	551	126	reduces	increases	upregulate	reduces	increases	upregulate	upregulate
